Assay results from patent US9809604B2, “DGAT1 inhibitor and preparation method and use thereof” (Qingdao Huanghai Pharmaceutical Co., Ltd., priority 2013, dated 2017).
Read-outs that look alike come from different tables or passages of the source.

Target: T1, DGAT1 (Homo sapiens, UniProt O75907)
T1 sequence (O75907 1-488): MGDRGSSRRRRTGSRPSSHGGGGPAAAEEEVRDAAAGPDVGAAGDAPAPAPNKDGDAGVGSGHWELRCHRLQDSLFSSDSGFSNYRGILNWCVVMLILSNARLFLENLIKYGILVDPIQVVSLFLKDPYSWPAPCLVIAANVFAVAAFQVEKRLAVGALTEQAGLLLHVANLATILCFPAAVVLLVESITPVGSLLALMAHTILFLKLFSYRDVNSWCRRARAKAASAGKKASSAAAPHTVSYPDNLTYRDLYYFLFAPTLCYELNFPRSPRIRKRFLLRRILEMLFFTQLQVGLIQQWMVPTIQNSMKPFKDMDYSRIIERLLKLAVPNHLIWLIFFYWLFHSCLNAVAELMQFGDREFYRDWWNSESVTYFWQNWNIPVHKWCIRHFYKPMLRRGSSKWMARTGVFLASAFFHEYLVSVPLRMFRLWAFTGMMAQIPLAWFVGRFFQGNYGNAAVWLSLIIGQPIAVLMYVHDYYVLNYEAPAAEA
Experiment: Human DGAT1 IC50 enzyme assay (Flashplate, 14C-labeled acyl-CoA)
Format: biochemical
Design: made in house
Description: The ability of compounds to inhibit DGAT enzyme activity is determined by calculating IC50 values of test compounds. Ki values of DGAT1 are calculated as follows: Cheng-Prusoff equation: Ki=IC50/(1+[S]/Km)
(1) Human DGAT1 IC50 (nM) Experiment
Human DGAT1 activity was determined as follows:
Expressing human DGAT1 enzyme, used diacylglycerol and 14C-labeled acyl-CoA as the substrate, choose PE Company Flashplate testing board to build DGAT1 enzyme reaction system. 14C-labeled acyl-CoA binds to diacylglycerol by covalent bonding after enzymology reaction, and generates the product of 14C-labeled triglyceride. 14C-labeled acyl-CoA substrate is dissolved in reaction solution and 14C-labeled triglyceride product combine with phospholipids of Flashplate plate bottom layer, thus effectively separate labeled substrates and products. The radioactive of 14C-labeled triglyceride which is combined with phospholipid layer is counted, and the potencies of DGAT-1 inhibition for the compounds are determined by calculating the IC50 values.

[1] = average of first and second, read-out: hDGAT1 IC50(nM) Average
[2] = first determination, read-out: hDGAT1 IC50(nM) First
[3] = second determination, read-out: hDGAT1 IC50(nM) Second

Row | SMILES | IC50 [1] [nM] | IC50 [2] [nM] | IC50 [3] [nM]
1 | CC(C)(Cn1cc(-c2ccc(N3CCOc4ncnc(N)c4C3=O)cc2Cl)cn1)C(=O)N1CCCC1 [Compound 85] | 61.7 | 59.6 | 63.7
2 | Nc1ncnc2c1C(=O)N(c1ccc3c(c1)CCC(OCC(F)(F)F)C3)CCO2 (single isomer, unassigned; peak1) [Compound 105 (peak1), 4-amino-6-(6-(2,2,2-trifluoroethoxy)-5,6,7,8-tetrahydonaphthalen-2-yl)-7,8-dihydropyrimido[5,4-f][1,4]oxazepin-5-(6H)-one] | 73.3 | 103 | 43.3
3 | CC(C)Cn1cc(-c2ccc(N3C(=O)c4c(N)ncnc4OC[C@H]3C)cc2Cl)cn1 [Compound 96, (R)-4-amino-6-(3-chloro-4-(1-isobutyl-1H-pyrazol-4-yl)phenyl)-7-methyl-7,8-dihydropyrimido[5,4-f][1,4] oxazepin-5-(6H)-one] | 70.5 | 69.4 | 71.7
4 | CCC(C(=O)O)n1cc(-c2ccc(N3CCOc4ncnc(N)c4C3=O)cc2C)cn1 (stereo not drawn) [Compound 64, 2-(4-(4-(4-amino-5-oxo-7,8-dihydropyrimido [5,4-f][1,4]oxazepin-6(5H)-yl)-2-methylphenyl)-1H-pyrazol-1-yl)butanoic acid] | 57.6 | 38.7 | 76.5
5 | Nc1ncnc2c1C(=O)N(c1ccc3c(c1)CCC(OCC(F)(F)F)C3)CCO2 (single isomer, unassigned) [Compound 108 (peak2), 4-amino-6-(6-(2,2,2-trifluoroethoxy)-5,6,7,8-tetrahydonaphthalen-2-yl)-7,8-dihydropyrimido[5,4-f][1,4]oxazepin-5-(6H)-one] | 52.6 | 56.4 | 48.8
6 | Cc1cc(N2CCOc3ncnc(N)c3C2=O)cc(C)c1-c1c(C)nn(CC(F)(F)F)c1C [Compound 93, 4-amino-6-(4-(3,5-dimethyl-1-(2,2,2-trifluoroethyl)-1H-pyrazol-4-yl)-3,5-dimethylphenyl)-7,8-dihydropyrimido[5,4-f][1,4]oxazepin-5(6H)-one] | 69.4 | 64.5 | 74.2
7 | Nc1ncnc2c1C(=O)N(c1ccc(-c3cnn(CC4CC4)c3)c(Cl)c1)CCO2 [Compound 87, 4-amino-6-(3-chloro-4-(1-(cyclopropylmethyl)-1H-pyrazol-4-yl)phenyl)-7,8-dihydropyrimido[5,4-f][1,4]oxazepin-5(6H)-one] | 46.7 | 49.3 | 44.2

Now from value to molecule:

Row | IC50 [1] [nM] | IC50 [2] [nM] | IC50 [3] [nM] | SMILES
8 | 36.8 | 26.9 | 46.7 | CC(C)(C(=O)O)n1cc(-c2ccc(N3CCOc4ncnc(N)c4C3=O)cc2Cl)cn1 [Compound 33, 2-(4-(4-(4-amino-5-oxo-7,8-dihydropyrimido[5,4-f][1,4]oxazepin-6(5H)-yl)-2-chlorophenyl)-1H-pyrazol-1-yl)-2-methylpropanoic acid]
9 | 48.1 | 53.3 | 43 | Nc1ncnc2c1C(=O)N(c1ccc(N3CCN(CC(=O)O)C3=O)c(Cl)c1)CCO2 [Compound 1, 2-(3-(4-(4-amino-5-oxo-7,8-dihydropyrimido[5,4-f][1,4]oxazepin-6(5H)-yl)-2-chlorophenyl)-2-oxoimidazolidin-1-yl)acetic acid]
10 | 95.6 | 89 | 102 | NC(=O)Cn1cc(-c2ccc(N3CCOc4ncnc(N)c4C3=O)cc2Cl)cn1 [Compound 46, 2-(4-(4-(4-amino-5-oxo-7,8-dihydropyrimido[5,4-f][1,4]oxazepin-6(5H)-yl)-2-chlorophenyl)-1H-pyrazol-1-yl)acetamide]
11 | 37.8 | 28.2 | 47.4 | CCC(C(=O)O)n1cc(-c2ccc(N3CCOc4ncnc(N)c4C3=O)cc2Cl)cn1 (stereo not drawn) [Compound 61, 2-(4-(4-(4-amino-5-oxo-7,8-dihydropyrimido [5,4-f][1,4]oxazepin-6(5H)-yl)-2-chlorophenyl)-1H-pyrazol-1-yl)butanoic acid]
